# Data from patent US10933009B2, “Formulations and methods for treating dermatological disorders and diseases” (VAPOGENIX, INC., priority 2011, dated 2021).
# Assay: Isoflurane remaining in uncapped vials, determined by weighing over time
# Type: physicochemical
# Description: In the Examples that follow, the stability of isoflurane in the described compositions was determined in two ways. First, the compositions were examined for the presence of phase separation at the macroscopic level. Secondly, isoflurane content of the compositions was determined by weighing the remaining isoflurane in the composition when they were left uncapped over time. Briefly, glass vials were filled with 5-10 ml of the composition vehicle and then weighed; one of them received only vehicle (i.e., no isoflurane) and served as control. The other vials received varying amounts of isoflurane. They were left uncapped in the hood. Over time, the vials were weighed to see if the isoflurane stayed in the composition or had evaporated. The amount evaporated over time in the vehicle control was subtracted from that in the isoflurane-containing composition.
# The pure form of isoflurane is a volatile anesthetic. In order to assess the volatility of isoflurane, two vials received the indicated amounts of pure form isoflurane. The vials were placed in the chemical fume hood and left uncapped. The vials were weighed at the indicated times to determine the amount of evaporated isoflurane. As it is shown in the table below 0.7893 g isoflurane was evaporated within 3 hours, while 3.4825 g isoflurane took approximately 8 hrs to evaporate completely. These amounts of isoflurane are similar to the amounts of isoflurane that were used to prepare the isoflurane compositions in the Examples that follow.
# [1] = pure form of isoflurane 0.7893 g, uncapped vial
# [2] = pure form of isoflurane 3.4825 g, uncapped vial
smiles,measurement,setting,value
FC(F)OC(Cl)C(F)(F)F (stereo not drawn) [isoflurane],time for isoflurane to evaporate,"0.7893 g pure isoflurane, uncapped vial in fume hood",≤ 3 h
same,time for isoflurane to evaporate completely,"3.4825 g pure isoflurane, uncapped vial in fume hood",approximately 8 hrs
same,0 h (% remaining iso),"pure form of isoflurane 0.7893 g, uncapped vial in fume hood",100%
same,0.25 h (% remaining iso),[1],85%
same,1 h (% remaining iso),[1],52%
same,2 h (% remaining iso),[1],14%
same,3 h (% remaining iso),[1],0%
same,0 h (% remaining iso),"pure form of isoflurane 3.4825 g, uncapped vial in fume hood",100%
same,0.25 h (% remaining iso),[2],96%
same,1 h (% remaining iso),[2],86%
same,2 h (% remaining iso),[2],75%
same,3 h (% remaining iso),[2],62%
same,5 h (% remaining iso),"pure form of isoflurane 3.4825 g, uncapped vial, 5 h",38%
same,7 h,"pure form of isoflurane 3.4825 g, uncapped vial, 7 h",13%
same,8 h,"pure form of isoflurane 3.4825 g, uncapped vial, 8 h",3%
